In US7812047B2, “4-imidazolines” (Hoffman-La Roche Inc., priority 2007, dated 2010):

target: T1, TAAR1 (Mus musculus, UniProt Q923Y8); assay: Radioligand binding assay on membranes of HEK293 cells stably expressing TAAR1; conditions: mouse TAAR1; radioligand [3H]-rac-2-(1,2,3,4-tetrahydro-1-naphthyl)-2-imidazoline, 4° C., 30 min
T1 construct: expressed in transfected cells; host or cells: HEK293 cells (ATCC CRL-1573), stably transfected with pIRESneo2 expression plasmid; membranes prepared
Description: For the construction of expression plasmids the coding sequences of human, rat and mouse TAAR 1 were amplified from genomic DNA essentially as described by Lindemann et al.. The Expand High Fidelity PCR System (Roche Diagnostics) was used with 1.5 mM Mg^2+ and purified PCR products were cloned into pCR2.1-TOPO cloning vector (Invitrogen) following the instructions of the manufacturer. PCR products were subcloned into the pIRESneo2 vector (BD Clontech, Palo Alto, Calif.), and expression vectors were sequence verified before introduction in cell lines.
HEK293 cells (ATCC # C.RL-1573) were cultured essentially as described Lindemann et al. (2005). For the generation of stably transfected cell lines HEK293 cells were transfected with the pIRESneo2 expression plasmids containing the TAAR coding sequences (described above) with Lipofectamine 2000 (Invitrogen) according to the instructions of the manufacturer, and 24 hrs post transfection the culture medium was supplemented with 1 mg/ml G418 (Sigma, Buchs, Switzerland). After a culture period of about 10 d clones were isolated, expanded and tested for responsiveness to trace amines (all compounds purchased from Sigma) with the cAMP Biotrak Enzyme immunoassay (EIA) System (Amersham) following the non-acetylation EIA procedure provided by the manufacturer.
Cells at confluence were rinsed with ice-cold phosphate buffered saline without Ca^2+ and Mg^2+ containing 10 mM EDTA and pelleted by centrifugation at 1000 rpm for 5 min at 4° C. The pellet was then washed twice with ice-cold phosphate buffered saline and cell pellet was frozen immediately by immersion in liquid nitrogen and stored until use at −80° C. Cell pellet was then suspended in 20 ml HEPES-NaOH (20 mM), pH 7.4 containing 10 mM EDTA, and homogenized with a Polytron (PT 3000, Kinematica) at 10,000 rpm for 10 s. The homogenate was centrifuged at 48,000×g for 30 min at 4° C. and the pellet resuspended in 20 ml HEPES-NaOH (20 mM), pH 7.4 containing 0.1 mM EDTA (buffer A), and homogenized with a Polytron at 10,000 rpm for 10 s. The homogenate was then centrifuged at 48,000×g for 30 min at 4° C. and the pellet resuspended in 20 ml buffer A, and homogenized with a Polytron at 10,000 rpm for 10 s. Protein concentration was determined by the method of Pierce (Rockford, Ill.). The homogenate was then centrifuged at 48,000×g for 10 min at 4° C., resuspended in HEPES-NaOH (20 mM), pH 7.0 including MgCl2 (10 mM) and […] homogenized with a Polytron at 10,000 rpm for 10 s.
Binding assay was performed at 4° C. in a final volume of 1 ml, and with an incubation time of 30 min. The radioligand [^3H]-rac-2-(1,2,3,4-tetrahydro-1-naphthyl)-2-imidazoline was used at a concentration equal to the calculated Kd value of 60 nM to give a bound at around 0.1% of the total added radioligand concentration, and a specific binding which represented approximately 70-80% of the total binding. Non-specific binding was defined as the amount of [^3H]-rac-2-(1,2,3,4-tetrahydro-1-naphthyl)-2-imidazoline bound in the presence of the appropriate unlabelled ligand (10 μM). Competing ligands were tested in a wide range of concentrations […]. […] Each experiment was performed in duplicate. All incubations were terminated by rapid filtration through UniFilter-96 plates (Packard Instrument Company) and glass filter GF/C, pre-soaked for at least 2 h in polyethylenimine 0.3%, and using a Filtermate 96 Cell Harvester (Packard Instrument Company). The tubes and filters were then washed 3 times with 1 ml aliquots of cold buffer B. Filters were not dried and soaked in Ultima gold (45 μl/well, Packard Instrument Company) and bound radioactivity was counted by a TopCount Microplate Scintillation Counter (Packard Instrument Company).

T1 sequence (Q923Y8 whole entry): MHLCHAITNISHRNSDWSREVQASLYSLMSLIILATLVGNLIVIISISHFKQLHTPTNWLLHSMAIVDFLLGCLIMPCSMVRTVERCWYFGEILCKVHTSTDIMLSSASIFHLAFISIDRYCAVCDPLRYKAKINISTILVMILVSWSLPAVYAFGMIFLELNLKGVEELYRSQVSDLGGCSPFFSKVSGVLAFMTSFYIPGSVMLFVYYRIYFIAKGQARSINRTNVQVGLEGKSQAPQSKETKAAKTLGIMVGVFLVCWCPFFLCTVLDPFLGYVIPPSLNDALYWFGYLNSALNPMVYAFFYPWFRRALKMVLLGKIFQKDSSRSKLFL

Compound | Ki [µM]
C1=NC(Cc2cccc3ccccc23)CN1 (racemic) [Example 2, rac-4-Naphthalen-1-ylmethyl-4,5-dihydro-1H-imidazole or tautomer] | 0.005
C1=NC(CCc2ccccc2)CN1 (racemic) [Example 3, rac-4-Phenethyl-4,5-dihydro-1H-imidazole or tautomer] | 0.06
CCc1cccc2cccc(CC3CNC=N3)c12 (racemic) [Example 6, (RS)-4-(8-Ethyl-naphthalen-1-ylmethyl)-4,5-dihydro-1H-imidazole or tautomer] | 0.078
CN(CC1CN=CN1)c1ccccc1 (stereo not shown) [Example 7, (4,5-Dihydro-3H-imidazol-4-ylmethyl)-methyl-phenyl-amine or tautomer] | 0.182

The next lines start with the values.

Ki [µM] | Compound
0.327 | Clc1ccc(CCC2CNC=N2)cc1 (racemic) [Example 10, rac-4-[2-(4-Chloro-phenyl)-ethyl]-4,5-dihydro-1H-imidazole or tautomer]
0.253 | CCN(CC1CN=CN1)c1ccccc1 (racemic) [Example 4, rac-(4,5-Dihydro-3H-imidazol-4-ylmethyl)-ethyl-phenyl-amine or tautomer]

same assay, conditions: radioligand binding assay; species not stated; read-out: calculated Kd value of the radioligand

Compound | Kd [nM]
c1ccc2c(c1)CCCC2C1=NCCN1 (racemic) [[^3H]-rac-2-(1,2,3,4-tetrahydro-1-naphthyl)-2-imidazoline, reference compound] | 60
